# According to patent US20230048888A1, “USE OF TRIAZOLOTRIAZINE DERIVATIVE IN TREATMENT OF DISEASES” (ZHEJIANG VIMGREEN PHARMACEUTICALS, LTD., priority 2019, published 2023):
# Experiments:
# human ADORA2B = target: T1, human ADORA2B (Homo sapiens, UniProt P29275); assay: Calcium flow test (FLIPR), ADORA2B stably transfected HEK293; format: cell-based; conditions: Table 9
# T1 construct: host or cells: HEK293
# Text: The binding of the A2AR agonist to A2AR could activate a downstream pathway to increase the intracellular calcium ion concentration. The antagonist would competitively occupy the binding site where the agonist binds to A2AR, thereby interrupting the intracellular signal transduction and leading to a change in the intracellular calcium ion concentration. By detecting the strength of the intracellular calcium ion signal, the antagonistic activities of the compound on human ADORA1, ADORA2A, ADORA2B and ADORA3 adenosine receptors were determined. […]
# 7) The FLIPR instrument software was operated; following a set program, 10 μL of experimental buffer salt solution was added to the cell plate; and fluorescence signals were read. Then, 10 μL of the reference compound of agonist at a predetermined concentration was added to the cell plate, and the fluorescence signals were read. After reading, data was exported by means of “Max-Min” and “Read 91 to Maximum allowed” in the software, the EC80 of each cell line was calculated, and an agonist with a concentration of 6×EC80 was prepared.
# 9) The FLIPR instrument software was operated; following a set program, 10 μL of the test compound and 10 μL of the reference compound were added at a predetermined concentration to the cell plate; and the fluorescence signals were read. […]
# [1] = test system: reserpine-induced dyskinesia; assay: Mouse reserpine-induced dyskinesia model (Laboras spontaneous activity); format: in vivo, CD1 mice
# Text: Reserpine is an indole alkaloid drug, which can inhibit the reuptake of noradrenergic neuron terminals to lead to slowed movement or incompetence, thereby inducing clinical symptoms similar to those of the Parkinson's disease. Its mechanism is as follows: the reserpine can block the transport of irreversible monoamines such as DA, 5-hydroxytryptamine (5-HT) and norepinephrine (NA) in vesicles, such that the monoamines are degraded in cells to consume central and peripheral monoamines, and rapidly reduce the level of monoamines, resulting in dyskinesias and other Parkinson's disease-like symptoms. An A2A receptor antagonist was administered to evaluate if the compound under test can ameliorate the dyskinesia of the mice. The evaluation indicators include walking distance, walking time, number of standings and standing time. […] The total number of actually used animals was 90. The animals were purchased from Charles River Laboratories in Beijing (Animal Certificate Number: 1100112011009984) and raised in the animal house of ChemPartner in Shanghai (Experimental Animal License: SYXK (Shanghai) 2017-0018). The animal house has an SPF environment. On the first day of the test, a single subcutaneous injection of 0.1% acetic acid or 0.6 mg/kg reserpine was performed based on the pre-set grouping and time points. After the injection, the animals were put back to rearing cages and pushed back to the original rearing room. The activity test was carried out on the second day of the test, and before the test, the Laboras system needed to be calibrated in advance to make it in a normal working state. […] The mice were put into an independent Laboras test box 50 minutes after the administration, and the Laboras behavior recording system was started up after 10 minutes of adaptation. The current moment is the 1st hour after the last administration for the animals, and the animals were recorded continuously for 60 minutes. After the test was completed, the Laboras behavior system automatically analyzed the walking distance (m), walking time (sec), the number of standings and standing time (sec) of the mice at 0-30 min, 30-60 min, 0-60 min and every 10 min. All measurement data were represented as mean±standard error of mean (mean±SEM), and check analysis was performed by Prism 8.0 statistical software.
# [2] = test system: haloperidol-induced stiffness; assay: Haloperidol-induced rat Parkinson's disease stiffness model (stiffness latency on metal rod); format: in vivo
# Protocol: The animals required for the day were transferred from the rearing room to an operation room in advance, and were let to acclimate for at least 30 min before the test was initiated. […] After 30 minutes, the test animals were intraperitoneally injected with haloperidol or vehicle 2 without haloperidol, and put back to the original rearing cages. At 60 and 120 minutes after the injection of haloperidol or vehicle 2, the forelimbs of the rat were gently placed vertically on a horizontal metal rod with a length of 20.5 cm, a diameter of 1.2 cm, and a height of 8.5 cm above the workbench, then its hind limbs were gently placed on a test box, and timing started. When the rat moved or climbed down on the metal rod with forelimbs, the timing was stopped, and the duration for the two forelimbs of the rat to maintain the posture on the metal rod was recorded, i.e., being recorded as stiffness latency. If the rat's front paws were not put down, the observation was terminated after 600 sec, and the stiffness latency of this animal was recorded as 600 sec. When the rod climbing test was completed that day, 5 animals from each group were perfused and fixed, and whole brains were removed for preservation. Stiffness latency: the time for the two forelimbs of a rat to keep still on the metal rod. The longest stiffness latency was 600 sec. Stiffness rate %=(stiffness latency/600)*100% All measurement data were represented as mean±standard error of mean (mean±SEM), and check analysis was performed by Prism 8.0 statistical software.
# [3] = 3 mg/kg intragastric, 30-60 min
# [4] = 10 mg/kg intragastric, 0-30 min
# [5] = 10 mg/kg intragastric, 0-60 min
# [6] = 10 mg/kg intragastric, 30-60 min
# [7] = 30 mg/kg intragastric, 0-30 min
# [8] = 30 mg/kg intragastric, 0-60 min
# [9] = 30 mg/kg intragastric, 30-60 min
# [10] = 10 mg/kg intragastric, 60 min after haloperidol
# [11] = 10 mg/kg intragastric, 120 min after haloperidol
# T1 sequence (P29275 whole entry): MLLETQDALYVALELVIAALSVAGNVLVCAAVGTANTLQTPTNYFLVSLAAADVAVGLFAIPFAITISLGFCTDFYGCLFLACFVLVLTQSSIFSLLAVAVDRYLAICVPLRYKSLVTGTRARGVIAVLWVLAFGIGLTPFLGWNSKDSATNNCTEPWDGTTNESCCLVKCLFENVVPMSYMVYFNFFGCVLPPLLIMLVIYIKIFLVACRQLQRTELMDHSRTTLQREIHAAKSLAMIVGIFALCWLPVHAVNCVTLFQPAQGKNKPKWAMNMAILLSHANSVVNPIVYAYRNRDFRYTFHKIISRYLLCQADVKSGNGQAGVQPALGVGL
smiles,measurement,setting,value
"Nc1nc(NCCc2ccc(NC3COC3)cc2)nc2nc(-c3ccco3)nn12 [Compound 22, 2-(furan-2-yl)-N5-(4-(oxetan-3-ylamino)phenethyl)-[1,2,4]triazolo[1,5-a][1,3,5]triazine-5,7-diamine]",IC50,human ADORA2B,106 ± 29.2 nM
"Cn1nnc(-c2ccc(CCNc3nc(N)n4nc(-c5ccco5)nc4n3)cc2)n1 [Compound 40, N5-(4-(2-methyl-2H-tetrazol-5-yl)phenethyl)-2-(furan-2-yl)-[1,2,4]triazolo[1,5-a][1,3,5]triazine-5,7-diamine]",IC50,human ADORA2B,194 ± 25.5 nM
"CC(=O)O.Nc1nc(NCCc2ccc(NC3COC3)cc2)nc2nc(-c3ccco3)nn12 [Acetate of Compound 22, 2-(furan-2-yl)-N5-(4-(oxetane-3-ylamino)phenethyl)-[1,2,4]triazolo[1,5-a][1,3,5]triazine-5,7-diamine acetate]",Number of standings,"[1]; 3 mg/kg intragastric, 0-30 min",36.7 ± 5.9
same,Walking distance,"[1]; 3 mg/kg intragastric, 0-30 min",4.3 ± 0.7 m
same,Walking time,"[1]; 3 mg/kg intragastric, 0-30 min",77.8 ± 11.0 s
same,Number of standings,"[1]; 3 mg/kg intragastric, 0-60 min",49.6 ± 12.2
same,Walking distance,"[1]; 3 mg/kg intragastric, 0-60 min",6.9 ± 2.1 m
same,Walking time,"[1]; 3 mg/kg intragastric, 0-60 min",108.5 ± 23.0 s
same,Number of standings,[1]; [3],12.9 ± 6.8
same,Walking distance,[1]; [3],2.6 ± 1.6 m
same,Walking time,[1]; [3],30.7 ± 13.9 s
same,Number of standings,[1]; [4],75.6 ± 8
same,Walking distance,[1]; [4],10.7 ± 1.0 m
same,Walking time,[1]; [4],160.5 ± 10.8 s
same,Number of standings,[1]; [5],116 ± 15.7
same,Walking distance,[1]; [5],19.2 ± 2.9 m
same,Walking time,[1]; [5],245.4 ± 29.1 s
same,Number of standings,[1]; [6],40.3 ± 11.4
same,Walking distance,[1]; [6],8.5 ± 2.3 m
same,Walking time,[1]; [6],84.9 ± 22.4 s
same,Number of standings,[1]; [7],98.7 ± 12.6
same,Walking distance,[1]; [7],11.3 ± 1.1 m
same,Walking time,[1]; [7],175.6 ± 12.4 s
same,Number of standings,[1]; [8],178 ± 20.9
same,Walking distance,[1]; [8],27.1 ± 2.5 m
same,Walking time,[1]; [8],311.0 ± 22.3 s
same,Number of standings,[1]; [9],79.4 ± 10.1
same,Walking distance,[1]; [9],15.9 ± 1.9 m
same,Walking time,[1]; [9],135.4 ± 12.8 s
same,Stiffness rate,"[2]; 3 mg/kg intragastric, 60 min",1.6 ± 0.8%
same,Stiffness latency,"[2]; 3 mg/kg intragastric, 60 min after haloperidol",9.3 ± 4.5 s
same,Stiffness rate,"[2]; 3 mg/kg intragastric, 120 min",4.1 ± 1.9%
same,Stiffness latency,"[2]; 3 mg/kg intragastric, 120 min after haloperidol",24.8 ± 11.2 s
same,Stiffness rate,"[2]; 10 mg/kg intragastric, 60 min",0.1 ± 0.06%
same,Stiffness latency,[2]; [10],0.7 ± 0.4 s
same,Stiffness rate,"[2]; 10 mg/kg intragastric, 120 min",0.4 ± 0.2%
same,Stiffness latency,[2]; [11],2.6 ± 1.5 s
same,Stiffness rate,"[2]; 30 mg/kg intragastric, 60 min",0.1 ± 0.05%
same,Stiffness latency,"[2]; 30 mg/kg intragastric, 60 min after haloperidol",0.6 ± 0.3 s
same,Stiffness rate,"[2]; 30 mg/kg intragastric, 120 min",0.1 ± 0.07%
same,Stiffness latency,"[2]; 30 mg/kg intragastric, 120 min after haloperidol",0.6 ± 0.4 s
"CCn1c(=O)c2c(nc(/C=C/c3ccc(OC)c(OC)c3)n2C)n(CC)c1=O [Istradefylline, reference compound]",Number of standings,[1]; [4],94.3 ± 11.1
same,Walking distance,[1]; [4],11.9 ± 1.4 m
same,Walking time,[1]; [4],177.5 ± 16.0 s
same,Number of standings,[1]; [5],165 ± 20
same,Walking distance,[1]; [5],23.7 ± 3.2 m
same,Walking time,[1]; [5],298.3 ± 28.4 s
same,Number of standings,[1]; [6],70.6 ± 10.6
same,Walking distance,[1]; [6],11.8 ± 2.0 m
same,Walking time,[1]; [6],120.8 ± 16.0 s
same,Stiffness rate,"[2]; 10 mg/kg intragastric, 60 min",0.2 ± 0.1%
same,Stiffness latency,[2]; [10],1.4 ± 0.8 s
same,Stiffness rate,"[2]; 10 mg/kg intragastric, 120 min",0.07 ± 0.05%
same,Stiffness latency,[2]; [11],0.4 ± 0.3 s
